Data reported in US8288342B2, “Methods for treating vasomotor symptoms in castrated prostatic cancer patients with low dose cyproterone acetate” (priority 2008, dated 2012).

Experiments:
[1] = test system: hot flashes and outbreaks of sweating after orchiectomy; settings: CPA 150 mg daily, cited from earlier work
[2] = test system: hot flashes following surgical or medical castration of prostate cancer patients; assay: Randomized, multicenter, placebo-controlled Phase 2 trial of CPA 5, 15, 25 mg/day: hot flash efficacy; format: in vivo, human; settings: for Reduction in average severity of moderate to severe hot flashes compared to placebo (positive) / Reduction in weekly average severity of hot flashes compared to placebo (Table 7 analysis, positive) / LS Mean Change in Weekly Average Severity of All Hot Flashes / LS Mean Change in Weekly Average Severity of Moderate to Severe Hot Flashes: 4-point scale; for Fewer weekly moderate to severe hot flashes compared to placebo (reduction, positive): baseline to end-of-treatment
Text: The inclusion criteria included male (>18 years) prostate cancer patients who have undergone bilateral orchiectomy or have used or are using LHRH analogue drug([…]®, Aberelix®), and have complained of bothersome hot flashes as defined by the occurrence of at least 3 moderate to severe hot flashes per day or 21 per week at baseline. Hot flashes were present for at least 1 month prior to study entry. […] A total of 121 clinical sites in the United States and Canada participated in this Phase 2 study with 77 sites enrolling at least one subject. The overall study duration for each subject was approximately 19 weeks, which included a screening period of up to 4 weeks, a one-week placebo run-in period, a 12-week double-blind period, and a follow-up telephone call two weeks after the last dose of study medication. After providing informed consent on the first day of the screening period, all subjects had medical and hot flash history recorded, a physical examination, a chest x-ray and Doppler to assess known thromboembolic risk factors, an ECG to evaluate cardiac risks, and clinical laboratory evaluations. Once all results of tests conducted during the screening period were obtained, subjects who met all of the inclusion criteria and none of the exclusion criteria were eligible to enter the one-week, single-blind, placebo run-in period. […] CPA 5, 15, or 25 mg/day or placebo. After beginning study medication, subjects returned for study visits at weeks 2, 4, 8, and 12. Two weeks after the final treatment visit, a telephone follow-up call was conducted to record and evaluate adverse events (“AE”s) since the last study visit. Each subject received one tablet daily, which was administered orally. All tablets were blinded and identical in appearance. The formulation used in this study was an immediate release product containing 5, 15, or 25 mg of CPA. The CPA tablets are described in Example 1. The dosage form for the CPA used in this study was an identical, blind, modified oval, scored, immediate release oral tablet for each strength, consisting of cyproterone acetate, lactose, microcrystalline cellulose, crospovidone, sodium lauryl sulfate, silicon dioxide, magnesium stearate, and stearic acid. Placebo tablets included the same constituents but without CPA and were identical in appearance to the active tablets. During the single-blind placebo run-in period, subjects received one medication bottle containing a one week+2 day supply (9 tablets total) of single-blind placebo tablets and a copy of the Subject Information Sheet. Subjects were instructed to take one tablet each morning by mouth, preferably with a meal, at approximately the same time each day. Subjects were not made aware that they were receiving placebo. Following randomization at Visit 2, all enrolled and eligible subjects were randomized equally to one of four treatment groups (CPA 5, 15, 25 mg, or placebo) and received the study medication on the same day. At treatment visits 0, 4, and 8 weeks following initiation, each subject received one medication bottle containing a one-month supply+7 (35 tablets total) of double-blind […] tablets and a copy of the Subject Information Sheet. Subjects were instructed to take one tablet each morning by mouth, preferably with a meal, at approximately the same time each day. This study was designed to evaluate three doses of CPA (5 mg, 15 mg, and 25 mg) for the treatment of hot flashes in prostate cancer patients. Observation of a reduction in the frequency and severity of hot flashes was considered a reasonable and reliable indicator of the efficacy of active treatment. The primary measure of efficacy was the change in weekly frequency and weekly average severity of moderate to severe hot flashes from the placebo run-in period to the final week of treatment. […]

[3] = test system: hot flashes in castrated prostatic cancer patients; assay: Prior study of 50 mg and 100 mg CPA: hot flash efficacy; format: in vivo, human; settings: N 236
Experimental: The results of this study were compared with results from a prior study in which the efficacy of 50 mg and 100 mg of CPA was investigated. Efficacy data for the 50 mg and 100 mg studies showing a reduction in average daily number of moderate to severe hot flashes, and a reduction in average severity of hot flashes is shown in FIGS. 6 and 7, respectively. A comparison of the percent of patients with complete disappearance of all hot flashes at 12 weeks of treatment across studies is shown in Table 10.

[4] = Same Phase 2 trial: cyproterone acetate and 15β-OH cyproterone acetate concentrations by treatment and visit; format: in vivo, human; settings: 5 mg/day, 15 mg/day and 25 mg/day
Experimental: FIG. 3 depicts schematically the analysis of cyproterone acetate and 15β-OH cyproterone acetate (a breakdown product of cyproterone acetate that contributes to the effectiveness of the drug) concentration in the patients who were treated.

[5] = all three treatment groups (5, 15, 25 mg/day)

CC(=O)O[C@]1(C(C)=O)CC[C@H]2[C@@H]3C=C(Cl)C4=CC(=O)[C@@H]5C[C@@H]5[C@]4(C)[C@H]3CC[C@@]21C [CPA, cyproterone acetate]
Frequency and severity in subjects who continued to experience hot flashes or sweating [1]: decreased
Subjects with outbreaks of sweating ([1]; placebo 47%): 24%
Subjects experiencing hot flashes ([1]; placebo 61%): 33%
% With Complete Disappearance of All Hot Flashes at 12 Weeks/End-of-Treatment ([2]; CPA 5 mg, N 80): 27.5%
Proportion of subjects with total elimination of moderate to severe hot flashes (Yes) ([2]; CPA 5 mg/day): 27.27%
Proportion of subjects without total elimination of moderate to severe hot flashes (No) ([2]; CPA 5 mg/day): 72.73%
Reduction in average frequency of all hot flashes compared to placebo (positive) ([2]; CPA 5 mg/day): 27.73 units
Subjects without total elimination of moderate to severe hot flashes (No), number ([2]; CPA 5 mg/day): 56
LS Mean Change in Total Weekly Moderate to Severe Hot Flash Frequency ([2]; CPA 5 mg/day oral, Baseline (Day 0) to End-of-Treatment (Day 84)): −40.47
Subjects with total elimination of moderate to severe hot flashes (Yes), number ([2]; CPA 5 mg/day, out of 77): 21
Reduction in average severity of moderate to severe hot flashes compared to placebo (positive) ([2]; CPA 5 mg/day): 0.86 units
Reduction in weekly average severity of hot flashes compared to placebo (Table 7 analysis, positive) ([2]; CPA 5 mg/day): 0.60 units
Difference from placebo in change of Total Weekly Moderate to Severe Hot Flash Frequency ([2]; CPA 5 mg/day, Day 0 to Day 84): −23.08
Difference from placebo in change of Weekly Average Frequency of All Hot Flashes ([2]; CPA 5 mg/day, Day 0 to Day 84): −27.73
Difference from placebo in change of Weekly Average Severity of All Hot Flashes ([2]; CPA 5 mg/day, Day 0 to Day 84): −0.6
Difference from placebo in change of Weekly Average Severity of Moderate to Severe Hot Flashes ([2]; CPA 5 mg/day, Day 0 to Day 84): −0.86
LS Mean Change in Weekly Average Frequency of All Hot Flashes ([2]; CPA 5 mg/day, Day 0 to Day 84): −50.67
LS Mean Change in Weekly Average Severity of All Hot Flashes ([2]; CPA 5 mg/day, Day 0 to Day 84): −0.76
LS Mean Change in Weekly Average Severity of Moderate to Severe Hot Flashes ([2]; CPA 5 mg/day, Day 0 to Day 84): −1.06
Fewer weekly moderate to severe hot flashes compared to placebo (reduction, positive) ([2]; CPA 5 mg/day): 23.08
% With Complete Disappearance of All Hot Flashes at 12 Weeks/End-of-Treatment ([2]; CPA 15 mg, N 96): 32.3%
Proportion of subjects with total elimination of moderate to severe hot flashes (Yes) ([2]; CPA 15 mg/day): 32.63%
Proportion of subjects without total elimination of moderate to severe hot flashes (No) ([2]; CPA 15 mg/day): 67.37%
Reduction in average frequency of all hot flashes compared to placebo (positive) ([2]; CPA 15 mg/day): 32.69 units
Subjects without total elimination of moderate to severe hot flashes (No), number ([2]; CPA 15 mg/day): 64
LS Mean Change in Total Weekly Moderate to Severe Hot Flash Frequency ([2]; CPA 15 mg/day oral, Day 0 to Day 84): −45.05
Subjects with total elimination of moderate to severe hot flashes (Yes), number ([2]; CPA 15 mg/day, out of 95): 31
Reduction in average severity of moderate to severe hot flashes compared to placebo (positive) ([2]; CPA 15 mg/day): 1.13 units
Reduction in weekly average severity of hot flashes compared to placebo (Table 7 analysis, positive) ([2]; CPA 15 mg/day): 0.78 units
Difference from placebo in change of Total Weekly Moderate to Severe Hot Flash Frequency ([2]; CPA 15 mg/day, Day 0 to Day 84): −27.66
Difference from placebo in change of Weekly Average Frequency of All Hot Flashes ([2]; CPA 15 mg/day, Day 0 to Day 84): −32.69
Difference from placebo in change of Weekly Average Severity of All Hot Flashes ([2]; CPA 15 mg/day, Day 0 to Day 84): −0.78
Difference from placebo in change of Weekly Average Severity of Moderate to Severe Hot Flashes ([2]; CPA 15 mg/day, Day 0 to Day 84): −1.13
LS Mean Change in Weekly Average Frequency of All Hot Flashes ([2]; CPA 15 mg/day, Day 0 to Day 84): −55.63
LS Mean Change in Weekly Average Severity of All Hot Flashes ([2]; CPA 15 mg/day, Day 0 to Day 84): −0.94
LS Mean Change in Weekly Average Severity of Moderate to Severe Hot Flashes ([2]; CPA 15 mg/day, Day 0 to Day 84): −1.33
Fewer weekly moderate to severe hot flashes compared to placebo (reduction, positive) ([2]; CPA 15 mg/day): 27.66
% With Complete Disappearance of All Hot Flashes at 12 Weeks/End-of-Treatment ([2]; CPA 25 mg, N 86): 36.1%
Proportion of subjects with total elimination of moderate to severe hot flashes (Yes) ([2]; CPA 25 mg/day): 36.05%
Proportion of subjects without total elimination of moderate to severe hot flashes (No) ([2]; CPA 25 mg/day): 63.95%
Reduction in average frequency of all hot flashes compared to placebo (positive) ([2]; CPA 25 mg/day): 33.93 units
Subjects without total elimination of moderate to severe hot flashes (No), number ([2]; CPA 25 mg/day): 55
LS Mean Change in Total Weekly Moderate to Severe Hot Flash Frequency ([2]; CPA 25 mg/day oral, Day 0 to Day 84): −46.14
Subjects with total elimination of moderate to severe hot flashes (Yes), number ([2]; CPA 25 mg/day, out of 86): 31
Reduction in average severity of moderate to severe hot flashes compared to placebo (positive) ([2]; CPA 25 mg/day): 0.94 units
Reduction in weekly average severity of hot flashes compared to placebo (Table 7 analysis, positive) ([2]; CPA 25 mg/day): 0.77 units
Difference from placebo in change of Total Weekly Moderate to Severe Hot Flash Frequency ([2]; CPA 25 mg/day, Day 0 to Day 84): −28.75
Difference from placebo in change of Weekly Average Frequency of All Hot Flashes ([2]; CPA 25 mg/day, Day 0 to Day 84): −33.93
Difference from placebo in change of Weekly Average Severity of All Hot Flashes ([2]; CPA 25 mg/day, Day 0 to Day 84): −0.77
Difference from placebo in change of Weekly Average Severity of Moderate to Severe Hot Flashes ([2]; CPA 25 mg/day, Day 0 to Day 84): −0.94
LS Mean Change in Weekly Average Frequency of All Hot Flashes ([2]; CPA 25 mg/day, Day 0 to Day 84): −56.87
LS Mean Change in Weekly Average Severity of All Hot Flashes ([2]; CPA 25 mg/day, Day 0 to Day 84): −0.93
LS Mean Change in Weekly Average Severity of Moderate to Severe Hot Flashes ([2]; CPA 25 mg/day, Day 0 to Day 84): −1.14
Fewer weekly moderate to severe hot flashes compared to placebo (reduction, positive) ([2]; CPA 25 mg/day): 28.75
Treating all hot flashes, including mild, moderate, and severe ([2]; all three doses (5, 15, 25 mg/day)): effective
Total weekly frequency of moderate to severe hot flashes over placebo [2, 5]: statistically significant reduction
Weekly average frequency of all hot flashes over placebo [2, 5]: statistically significant reduction
Weekly average severity of all hot flashes over placebo [2, 5]: statistically significant reduction
Weekly average severity of moderate to severe hot flashes over placebo [2, 5]: statistically significant reduction
% With Complete Disappearance of All Hot Flashes at 12 Weeks/End-of-Treatment ([3]; CPA 50 mg): 38.5%
% With Complete Disappearance of All Hot Flashes at 12 Weeks/End-of-Treatment ([3]; CPA 100 mg): 46.0%
Cyproterone acetate and 15β-OH cyproterone acetate concentration in treated patients [4]: dose proportional response
